Among the data in patent US20230183179A1, “NOVEL CELL METABOLISM MODULATING COMPOUNDS AND USES THEREOF” (CRESCENTA BIOSCIENCES, priority 2020, published 2023) are inhibition and fold induction values, retold here.

Usually inhibition stands for the drop in the measured response relative to a control, in per cent. Broadly, the fold induction is the signal under treatment as a multiple of the control signal.

In assay [1] the target is T1, His6 tagged human recombinant FABP4 (Homo sapiens, UniProt P15090).
T1 construct: purchased Cayman Chemicals 10009549
In words: FABP4 TR-FRET assay: displacement of fluorescent fatty acid BODIPY FL C12. The conditions noted are these: inhibition of BODIPY FL C12 binding to His6-FABP4; 1.2 μL of 1.085 mM compound in DMSO per well; triplicates, mean percent inhibition. The gist of the method:
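TR-FRET displacement of BODIPY FL C12 from His6-FABP4 bound by Tb-anti-His6 antibody, in Tris pH 7.4 buffer with γ-globulins, NP-40 and DTT; compound stock 1.085 mM in DMSO. Read after 10 min at room temperature as 520/615 nm ratio; mean % inhibition versus DMSO from triplicates.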
For orientation: In TR-FRET formats the signal depends on donor and acceptor labels being close together.

Assay [2] relates to differentiated 3T3-L1 mouse adipocyte cells. The assay is described as follows: Adipocyte glucose consumption in differentiated 3T3-L1 cells (colorimetric glucose assay of the medium). In kind it is cell-based. The conditions noted are these: 3T3-L1, 24 h, compound 10 μM, loss of glucose from culture medium, mean fold change (compound/DMSO). The gist of the method:
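Differentiated 3T3-L1 mouse adipocytes (rosiglitazone/dexamethasone/IBMX/insulin induction, day 11) treated 24 h with compounds at 10 μM, 0.1% DMSO final. Medium glucose measured colorimetrically; consumption taken as glucose loss from medium versus cell-free control, expressed as mean fold change compound/DMSO ±SD.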

T1 sequence (P15090 whole entry): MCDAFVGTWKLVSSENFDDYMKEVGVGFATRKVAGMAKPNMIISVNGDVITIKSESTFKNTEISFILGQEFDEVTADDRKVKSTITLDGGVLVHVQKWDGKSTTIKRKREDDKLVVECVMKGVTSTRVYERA

For `CCCCc1ccc2nc(N3CCCC(C(=O)O)C3)cc(-c3cccc(C#N)c3)c2c1` (stereo not shown) [1-[6-butyl-4-(3-cyanophenyl)quinolin-2-yl]piperidine-3-carboxylic acid], the inhibition at 1085 µM (stock) in assay [1] worked out at 24.3%. Moreover, the fold induction at 10 µM in assay [2] is 0.91.
The corresponding values for `CCCc1ccc2nc(OCC(=O)O)cc(-c3ccccc3)c2c1` [2-[(4-phenyl-6-propylquinolin-2-yl)oxy]acetic acid] are 33.8% and 0.99.
In the same order, the values of `CC(Oc1cc(-c2ccccc2)c2cc(CCc3ccccc3)ccc2n1)C(=O)O` (stereo not shown) [2-{[4-phenyl-6-(2-phenylethyl)quinolin-2-yl]oxy}propanoic acid] are 34.1% and 1.21.
In the same order, the values of `CCCCCCc1ccc2nc(N(C)CC(=O)O)cc(Oc3ccc(F)cc3)c2c1` [2-([4-(4-fluorophenoxy)-6-hexylquinolin-2-yl](methyl)amino}acetic acid] are 65.2% and 1.27.
Take `CCCCCCc1ccc2nc(N(C)CC(C)C(=O)O)cc(-c3cccc(C#N)c3)c2c1` (stereo not shown) [3-{[4-(3-cyanophenyl)-6-hexylquinolin-2-yl](methyl)amino}-2-methylpropanoic acid]: in assay [1], the inhibition at 1085 µM (stock) is 56.5%. Besides, the fold induction at 10 µM in assay [2] came out at 1.3.
In the same order, the values of `CCCCCCc1ccc2nc(N3CCC(C)(C(=O)O)C3)cc(-c3ccccc3)c2c1` (stereo not shown) [1-(6-hexyl-4-phenylquinolin-2-yl)-3-methylpyrrolidine-3-carboxylic acid] are 36.4% and 1.36.
As for `CN(CC(=O)O)c1cc(-c2ccncc2)c2cc(CCc3cccnc3)ccc2n1` [2-[methyl({6-[2-(pyridin-3-yl)ethyl]-4-(pyridin-4-yl)quinolin-2-yl})amino]acetic acid], the inhibition at 1085 µM (stock) in assay [1] turned out to be 24.6%. The fold induction at 10 µM in assay [2] came to 1.06.
In the same order, the values of `CCCCCCc1ccc2nc(N(C)CC(=O)O)cc(-c3ccc(F)cc3)c2c1` [2-{[4-(4-fluorophenyl)-6-hexylquinolin-2-yl](methyl)amino}acetic acid] are 81% and 1.3.
In the same order, the values of `CN(CC(=O)O)c1cc(-c2ccccc2)c2cc(CCc3nc4ccccc4o3)ccc2n1` [2-({6-[2-(1,3-benzoxazol-2-yl)ethyl]-4-phenylquinolin-2-yl}(methyl)amino)acetic acid] are 27.4% and 1.23.
For the molecule `COc1ccccc1CCc1ccc2nc(N(C)CC(=O)O)cc(-c3ccccc3)c2c1` [2-({6-[2-(2-methoxyphenyl)ethyl]-4-phenylquinolin-2-yl}(methyl)amino)acetic acid], the inhibition at 1085 µM (stock) in assay [1] is 65.1%. For the same molecule, the fold induction at 10 µM in assay [2] was 1.11.
The corresponding values for `CC(C)(c1cc(-c2ccccc2)c2cc(CCc3ccccc3)ccc2n1)c1nnn[nH]1` [4-phenyl-6-(2-phenylethyl)-2-[2-(1H-1,2,3,4-tetrazol-5-yl)propan-2-yl]quinoline] are 75% and 1.2.
In the same order, the values of `Clc1ccc2nc(N3CCCCC3)cc(-c3ccccc3)c2c1` [6-chloro-4-phenyl-2-(piperidin-1-yl)quinoline] are 64.3% and 0.99.
The corresponding values for `CCCCCCc1ccc2nc(N3CCCCC3)cc(-c3ccccc3)c2c1` [6-hexyl-4-phenyl-2-(piperidin-1-yl)quinoline] are 46.3% and 1.18.
For the molecule `CCCCCCc1ccc2nc(N3CCOC(C(=O)O)C3)cc(-c3ccccc3)c2c1` (stereo not shown) [4-(6-hexyl-4-phenylquinolin-2-yl)morpholine-2-carboxylic acid], the inhibition at 1085 µM (stock) in assay [1] worked out at 36.1%. Moreover, the fold induction at 10 µM in assay [2] is 1.22.
On to `O=C(O)C1CCCN1c1cc(-c2ccccc2)c2cc(Cl)ccc2n1` (stereo not shown) [1-(6-chloro-4-phenylquinolin-2-yl)pyrrolidine-2-carboxylic acid], for which, in assay [1], the inhibition at 1085 µM (stock) was determined as 105%. The fold induction at 10 µM in assay [2] is 1.08.
The corresponding values for `CCCCc1ccc2nc(OCC(=O)O)c(C(=O)O)c(-c3ccccc3)c2c1` [6-butyl-2-(carboxymethoxy)-4-phenylquinoline-3-carboxylic acid] are 44.6% and 0.99.
In the same order, the values of `CCCCCCc1ccc2nc(N3CCCC(C(=O)O)C3)cc(-c3ccccc3)c2c1` (stereo not shown) [1-(6-hexyl-4-phenylquinolin-2-yl)piperidine-3-carboxylic acid] are 88.3% and 1.16.
Take `CCCCc1ccc2nc(OC(C)C(=O)O)cc(-c3cccc(C#N)c3)c2c1` (stereo not shown) [2-{[6-butyl-4-(3-cyanophenyl)quinolin-2-yl]oxy}propanoic acid]: in assay [1], the inhibition at 1085 µM (stock) was 12.7%. In assay [2], the fold induction at 10 µM stood at 1.26.
In the same order, the values of `CCCCCCCCc1ccc2nc(N(C)CC(=O)O)cc(Oc3cccnc3)c2c1` [2-{methyl [6-octyl-4-(pyridin-3-yloxy)quinolin-2-yl]amino}acetic acid] are 83.6% and 1.47.
In the same order, the values of `CCCCCCc1ccc2nc(N(C)CC(=O)O)cc(-c3ccccc3)c2c1` [2-[(6-hexyl-4-phenylquinolin-2-yl)(methyl)amino]acetic acid] are 88.2% and 1.41.
Consider `CN(CC(=O)O)c1cc(-c2ccccc2)c2cc(CCc3ccc4cccnc4c3)ccc2n1` [2-[methyl({4-phenyl-6-[2-(quinolin-7-yl)ethyl]quinolin-2-yl})amino]acetic acid], for which the inhibition at 1085 µM (stock) in assay [1] is 43.5%. For the same molecule, in assay [2], the fold induction at 10 µM stood at 1.25.
The corresponding values for `CN(c1cc(-c2ccccc2)c2cc(CCc3ccccc3)ccc2n1)c1nnn[nH]1` [N-methyl-4-phenyl-6-(2-phenylethyl)-N-(1H-1,2,3,4-tetrazol-5-yl)quinolin-2-amine] are 76.3% and 1.17.
In the same order, the values of `CCCCc1ccc2nc(N(C)CC(=O)O)cc(-c3cccc(O)c3)c2c1` [2-{[6-butyl-4-(3-hydroxyphenyl)quinolin-2-yl](methyl)amino}acetic acid] are 83.8% and 1.28.
In the same order, the values of `CN(CC(=O)O)c1cc(-c2ccccc2)c2cc(Cl)ccc2n1` [2-[(6-chloro-4-phenylquinolin-2-yl)(methyl)amino]acetic acid] are 99.7% and 1.14.
Turning to `CN(CC(=O)O)c1cc(-c2ccccc2)c2cc(CCc3cnc4ccccc4n3)ccc2n1` [2-[methyl({4-phenyl-6-[2-(quinoxalin-2-yl)ethyl]quinolin-2-yl})amino]acetic acid], the inhibition at 1085 µM (stock) in assay [1] came to 33.6%. Also, in assay [2], the fold induction at 10 µM is 1.28.
The corresponding values for `CCCCc1ccc2nc(N(C)CC(=O)O)cc(-c3ccncc3)c2c1` [2-{[6-butyl-4-(pyridin-4-yl)quinolin-2-yl](methyl)amino}acetic acid] are 15% and 1.28.
In the same order, the values of `CCCCc1ccc2nc(N(C)CC(C)C(=O)O)cc(-c3ccccc3)c2c1` (stereo not shown) [3-[(6-butyl-4-phenylquinolin-2-yl)(methyl)amino]-2-methylpropanoic acid] are 74.7% and 1.34.
As to `CCCCCCC1CCc2nc(N(C)CC(=O)O)cc(-c3ccccc3)c2C1` (stereo not shown) [2-[(6-hexyl-4-phenyl-5,6,7,8-tetrahydroquinolin-2-yl)(methyl)amino]acetic acid], the inhibition at 1085 µM (stock) in assay [1] turned out to be 64.5%. In assay [2], the fold induction at 10 µM was determined as 1.34.
The corresponding values for `CCCCCCCCc1ccc2nc(N(C)CC(=O)O)cc(-c3ccccc3)c2c1` [2-[methyl(6-octyl-4-phenylquinolin-2-yl)amino]acetic acid] are 99.3% and 1.52.
In the same order, the values of `CCCCc1ccc2nc(N3CCCC(C(=O)O)C3)cc(-c3ccccc3)c2c1` (stereo not shown) [1-(6-butyl-4-phenylquinolin-2-yl)piperidine-3-carboxylic acid] are 98.1% and 1.25.
The corresponding values for `CCCCCCc1ccc2c(-c3ccccc3)cc(N(C)CC(=O)O)nc2c1` [2-[(7-hexyl-4-phenylquinolin-2-yl)(methyl)amino]acetic acid] are 25.3% and 1.26.
`CCCCCCc1ccc2nc(N(C)CC(=O)O)cc(-c3cccnc3)c2c1` [2-{[6-hexyl-4-(pyridin-3-yl)quinolin-2-yl](methyl)amino}acetic acid]: the inhibition at 1085 µM (stock) in assay [1] was determined as 71.3%. Besides, the fold induction at 10 µM in assay [2] turned out to be 1.28.
The corresponding values for `CN(CC(=O)O)c1cc(-c2ccccc2)c2cc(CCc3ccncc3)ccc2n1` [2-[methyl({4-phenyl-6-[2-(pyridin-4-yl)ethyl]quinolin-2-yl})amino]acetic acid] are less than 0% and 1.26.
The corresponding values for `CCCCCCc1ccc2nc(N(C)CC(C)C(=O)O)cc(-c3ccccc3)c2c1` (stereo not shown) [3-[(6-hexyl-4-phenylquinolin-2-yl)(methyl)amino]-2-methylpropanoic acid] are 89.7% and 1.31.
Consider `CN(CC(=O)O)c1cc(-c2ccccc2)c2cc(CCc3ccccc3Cl)ccc2n1` [2-({6-[2-(2-chlorophenyl)ethyl]-4-phenylquinolin-2-yl}(methyl)amino)acetic acid], for which the inhibition at 1085 µM (stock) in assay [1] was determined as 30.1%. In addition, the fold induction at 10 µM in assay [2] was 1.26.
